Results reported in a melting point compilation (Tetko et al.; mined from patent text by program, amines drawn as free bases though some values may be those of a salt).

Row | Compound | melting point [°C]
1 | CC1(C)CN(C(=O)c2cc3c(C(=O)OC(C)(C)C)ncn3c3ccc(Cl)cc23)CC(C)(C)N1 | 241 to 242
2 | Oc1ccc(C#Cc2ccccc2)cc1 | 83 to 84
3 | CC(C)(C)C(NC(=O)c1cccc(Br)c1)Nc1c(Nc2cccnc2)c(=O)c1=O (centres undefined) | 244 to 245
4 | FC(F)(F)c1cn2c(c1-c1ccccc1)CCC2 | 154
5 | COC(=O)CCS(=O)(=O)c1ccc(C=C(C)c2ccc3c(c2)C(C)(C)CCC3(C)C)cc1 | 118 to 120
6 | C[Si](C)(CCCSCCCNC(=O)n1cc(F)c(=O)[nH]c1=O)c1ccccc1 | 51 to 52
7 | Cc1ccc([N+](=O)[O-])cc1Nc1ncc(-c2cccnc2)o1 | 252
8 | CCOC(C)=C(C#N)C(=O)c1ccc(F)cc1 | 77
9 | C=CCOc1ccccc1-c1ccc(C#N)cc1 | 68 to 69
10 | CC(C)CCC(=O)N[C@H]1CC[C@H](CCN2CCN(c3nccc4c3CCO4)CC2)CC1 | 182
11 | CCCc1cc2cc(O)c(Cl)c(Cl)c2s1 | 50 to 51
12 | COC(=O)/C=C/c1cc2c(-c3ccccc3)c(CC(=O)Nc3ccc(F)cc3C(F)(F)F)c(=O)oc2cc1C | 233 to 236
13 | CCOC(=O)N1CCc2nc3ccccc3c(C)c2CC1 | 125
14 | CN1[C@H]2CC[C@@H]1[C@@H](CO)[C@@H](c1ccc(F)cc1)C2 | 79 to 80
15 | Cc1cn(C)c2c1N(C(=O)CN1CCCC1)c1ccccc1NC2=O | 210 to 212
16 | Cc1ccc2c(c1)c(N1CCN(C(=O)c3ccco3)CC1)c(C#N)c(=O)n2C | 231
17 | CCOC(=O)NNc1cc(C)c(-c2cccc(C#N)c2)nn1 | 189 to 190
18 | COc1cccc(C2C(C(=O)O)CC(=O)N2c2ccccc2)c1 (centres undefined) | 145 to 149
19 | Cc1ccc(CCOc2ccnc3c(OCCc4ccc(C)cc4)cccc23)cc1 | 142 to 143
20 | N#Cc1ccc(-c2cc(-c3cc(C#N)ccc3Cl)on2)cc1 | 207 to 209
21 | CN1C(=O)C2(COc3cc4c(cc32)OCCO4)c2c(C(=O)NC3CC3)cccc21 (centres undefined) | 127 to 128
22 | NNc1nccc2nc(-c3ccccc3)nn12 | 216 to 218
23 | COc1ccc(C2COC(=O)C2CSC2CCCCC2)cc1 (centres undefined) | 50 to 51
24 | Cc1c(F)c(F)c(N)c2c(=O)c(C(=O)O)cn(-c3nc(N)c(F)cc3F)c12 | 250
25 | COc1ccc(N2CCN(c3ccc(N4C(=O)NC(C)(C)C4=O)cc3)CC2)cc1 | 255

Row | Compound | melting point [°C]
26 | CCc1cc(-n2cncn2)ncn1 | 75 to 76
27 | Cc1c[nH]c2ccc(Nc3ncnc4cc(-c5ccccc5)sc34)cc12 | 221 to 223
28 | COc1cc(N)c(Cl)cc1C(=O)NCC1CCN(CCCCCCOc2ccccc2)CC1 | 113 to 115
29 | COC(=O)Nc1cn2cc(S(=O)c3ccccc3)ccc2n1 (centres undefined) | 247 to 248
30 | CC1(C)CC(=O)c2cc3c(cc2O1)OCO3 | 61 to 62
31 | CC#CCOc1ccc(S(=O)(=O)NC)cc1 | 78 to 80
32 | COC(=O)C(C(=O)OC)N(C(N)=O)c1ccc(C=NO)cc1 | 162
33 | COc1ccc(-c2ccc(C=O)cc2)cc1OC1CCCC1 | 86.5 to 87.5
34 | Cc1c(-c2ccc(O)cc2)n(Cc2ccc(OCCN3CCCC3)cc2)c2ccc(O)cc12 | 105 to 110
35 | Cc1cc(F)cc2nc(Cl)c(Cl)nc12 | 116 to 120
36 | CC(C)c1c(C(=O)Nc2ccc(C(=O)O)cc2)c(-c2ccccc2)c(-c2ccc(F)cc2)n1CC[C@@H]1C[C@H](CC(=O)OC(C)(C)C)OC(C)(C)O1 | 240 to 242
37 | CC1CCN(c2c(-c3c(F)cc(F)cc3F)c(Cl)nc3nc(SCc4ccccc4)nn23)CC1 | 147
38 | CCCN1CC(c2cccc(F)c2)=C(c2ccc(S(N)(=O)=O)cc2)C1=O | 188 to 190
39 | O=C1CCCc2oc(-c3ccccc3)cc21 | 132 to 134
40 | COc1ccc2c(c1)CN(C#N)CC2c1cc(OC)c(OC)c(OC)c1 (centres undefined) | 113 to 116
41 | CN(C(=O)c1coc(C=Cc2ccc(C(F)(F)F)cc2)n1)c1ccc(CCCCn2ccnn2)cc1 | 127 to 129
42 | CCOC(=O)c1ccc(NCc2ccc(OCc3ccccc3)cc2)cc1 | 144 to 146
43 | COc1cccc(Cc2nc3c(cnn3C(CCCc3ccccc3)C(C)O)c(=O)[nH]2)c1 (centres undefined) | 54
44 | Cc1ccc(NC(=O)C2CC2)c(-c2nc(C(F)(F)F)cs2)c1 | 155 to 156
45 | O=C1C(=O)N(Cc2ccc(Br)cc2F)c2c1cccc2C(F)(F)F | 141 to 143
46 | COc1ncc(Cl)cc1C(O)C=Cc1ccc(Cl)cc1 (centres undefined) | 135 to 140
47 | COC(=O)c1c(S(C)(=O)=O)ccc(C(=O)C2C(=O)CCCC2=O)c1Cl | 160 to 162
48 | O=C(O)c1ccc(-c2ccc3cc(OCc4ccccc4)c(C45CC6CC(CC(C6)C4)C5)cc3c2)s1 | 170 to 171
49 | O=Cc1cc(-c2ccc(F)cc2Cl)ccc1OC(F)(F)F | 64
50 | CC(=O)c1ccc2c(c1)ncn2-c1cccc(-n2ccnc2)c1 | 205 to 206

Row | Compound | melting point [°C]
51 | CSCC(=O)Nc1ccccc1 | 100
52 | O=C1CNC(=O)C(=Cc2cc3ccccc3s2)N1 | 258
53 | Cn1c(C=O)cnc1[N+](=O)[O-] | 114 to 115
54 | CCC(C)NC(=O)Nc1cc(-c2c(-c3ccc(F)c(C)c3)nc3cccnn23)ccn1 (centres undefined) | 196 to 197
55 | CC(C)c1nc(CN2C(=O)C3(COc4cc5c(cc43)OCO5)c3c(Cl)cccc32)cs1 (centres undefined) | 147 to 148
56 | CCOC(=O)N1CCN(C(c2ccccc2)c2ccccc2)CC1(C)Cc1ccc2c(c1)OCCO2 (centres undefined) | 153 to 155
57 | O=Cc1ccc(Cl)c(OCCCC(=O)N(CCO)CCCCC2CCCC2)c1[N+](=O)[O-] | 107 to 108
58 | Cc1cc(Cn2c(=S)sc3ccccc32)cc(C)c1O | 164 to 165
59 | CC(=O)Cc1c(C)nc2ccccc2c1N | 130 to 133
60 | Cc1cc(=O)oc2cc(NCc3ccccc3)ccc12 | 174 to 176
61 | Cn1c(=O)[nH]c(N)c(NCc2ccccc2)c1=O | 206 to 218
62 | Cc1ccc(C(=O)Nc2ccc(N3CCCC3)c(C(F)(F)F)c2)cc1Nc1nccc(-c2cccnc2)n1 | 129 to 130
63 | Cc1ccccc1CC(=NC#N)NC(NC(=O)Cc1cccnc1)C(C)(C)C (centres undefined) | 84 to 86
64 | CCCn1nc2c(N)nc3ccccc3c2c1CCc1ccccc1 | 175 to 176
65 | CCOCCCc1ccc(Oc2ccc3c(c2)C=C(C(=O)OC)CCS3(=O)=O)cc1 | 93 to 94
66 | CS(=O)CC(=O)c1cccn1Cc1ccccc1 (centres undefined) | 95 to 97
67 | Clc1ccc2c(c1)CCc1cccnc1C2N1CCNCC1 (single isomer, unassigned; (+)) | 153 to 155
68 | Cc1c(CC(=O)O)c2cc(O)ccc2n1C(=O)c1ccccc1 | 186 to 188
69 | C=Cn1cc(C(=O)O)c(=O)c2cc(F)c(Cl)cc21 | 210
70 | O=C(NO)C1(NS(=O)(=O)c2ccc(Oc3ccc(F)cc3)cc2)CCOCC1 | 176 to 177
71 | CCOC(=O)C(C(=O)OC(c1ccccc1)c1ccccc1)C(=O)c1cc(F)c(OC)nc1Nc1ccc(F)cc1F (centres undefined) | 130 to 131
72 | CCN(CC)CC(=O)Nc1ccc(NC(=O)Nc2ccc(N(CCCl)CCCl)cc2)cc1 | 209 to 211
73 | COc1cccc(N2CCN(C(=O)c3ccccc3C(c3ccc(O)cc3)c3ccc(O)cc3)CC2)c1 | 229 to 234
74 | CCCN(CCC)C(=O)Cn1c(-c2ccc([N+](=O)[O-])cc2)nc2cccnc21 | 205 to 208
75 | COc1ccc(C2SC(=O)NC2=O)cc1C(=O)NCc1ccc(C(F)(F)F)cc1 (centres undefined) | 168 to 169

Row | Compound | melting point [°C]
76 | CCC(O)CN1CCC2(CC1)CSC1=C(O2)c2ccccc2C(=O)C1=O (centres undefined) | 180 to 182
77 | CC(C)(C)c1ccc(OCC2=NC3(O)c4ccc(Cl)cc4CC3S2)cc1 (centres undefined) | 122 to 124
78 | NN=c1cc(-c2c[nH]nc2-c2cccc(Cl)c2)cc[nH]1 | 163 to 164
79 | O=[N+]([O-])c1cccc(OCCc2c[nH]cn2)c1 | 174 to 178
80 | CCCCC1=C(/C=C/C(=O)Oc2ccc([N+](=O)[O-])cc2)CCc2cc(OC)ccc21 | 94 to 95
81 | O=C1C(c2ccc(O)cc2)=C(Br)c2cc(O)ccc21 | 245
82 | CON=Cc1cc(-n2c(=S)cc(C(F)(F)F)n(N)c2=O)c(F)cc1Cl | 172 to 174
83 | CCOc1ccc(-c2nc3n(c2-c2ccc(OCC)cc2)CCS3)cc1 | 214 to 215
84 | O=C(NCCN1CCCC1)c1ccc(-c2cnc3c(c2)N(Cc2c(Cl)cccc2Cl)C(=O)CN3)cc1 | > 200
85 | CCCCc1nc(SC)c(C(=O)OCC)n1Cc1ccccc1-c1cccc(S(=O)(=O)NC#N)c1 | 108
86 | N#Cc1ccc(NC(=O)c2c(O)ccc3ccccc23)c(OC(F)(F)F)c1 | 169
87 | CN(C)CC1CCc2cc(OCc3ccc([N+](=O)[O-])cc3)ccc2C1 (centres undefined) | 83 to 89
88 | CSc1cccc(Oc2ncc(F)cc2C(=O)N[C@H]2CC[C@@H](CO)CC2)c1 | 123 to 126
89 | O=C1CCCC(=O)N1c1cc(Cc2n[nH]c(=O)c3ccccc23)ccc1F | 259 to 263
90 | O=C(N1CCC(c2nc(-c3c(Cl)cccc3Cl)no2)CC1)N1CCCc2ccccc21 | 63 to 68
91 | CN(C=C(c1ccccc1)c1ccccc1)C(=O)c1sc2ccc(C(F)(F)F)cc2c1O | 147 to 150
92 | NC(=O)c1nc(Cl)sc1Cl | 153
93 | CCCNC(=O)C1(C/C=C/c2ccccc2)c2ccccc2-c2ccccc21 | 95 to 97
94 | CCC(C)Sc1cc(C(F)(F)F)ccc1C(=O)c1cnoc1C1CC1 (centres undefined) | 75.6 to 76.4
95 | Cc1cc2ncnn2nc1OCC(C)(C)CCS(N)(=O)=O | 214 to 215
96 | Cc1cccc(C(=O)N(C)C)c1N | 95 to 96
97 | O=[N+]([O-])c1ccc(OCCc2ccc(CCl)cn2)cc1 | 77 to 78
98 | COc1cc(CCCC2SC(=O)NC2=O)ccc1OCc1coc(-c2ccccc2)n1 (centres undefined) | 131 to 132
99 | O=C(Nc1ccccc1)N1CCc2[nH]c3c(cnc4cc(Cl)ccc43)c2C1 | > 260
